Data from publication PMC6863955, “Quantitation of a Novel Engineered Anti-infective Host Defense Peptide, ARV-1502: Pharmacokinetic Study of Different Doses in Rats and Dogs” (Frontiers in Chemistry, 2019).
Read-outs that look alike come from different tables or passages of the source. Non-standard residues stand in square brackets, D forms with d. Residues, ends and D or L forms follow the SMILES beside them. Ac6c = NC1(C(=O)O)CCCCC1

What was measured:
[1] = dog, in vivo
Description: (§1) The objective of the study conducted at ITR Laboratories Canada Inc (Baie d'Urfe, Quebec, Canada) was to determine the pharmacokinetic profile of ARV-1502 following single intravenous or intramuscular injection administration to Sprague-Dawley rats and Beagle dogs.
(§2) For the dog study, ARV-1502 was administered once IM (divided equally over 2 sites) and once IV (1 week apart) as detailed in Table 2. Following dosing, blood was collected at the same time points noted above for the rat study.
(§3) Aliquots of rat or Beagle plasma (20 μL) were spiked with standard peptide Onc72 (0.35 μg/mL plasma, 1.2 μL). Samples were diluted with aqueous TFA in two steps (0.2% v/v, 20 μL and 0.1% v/v, 260 μL) and loaded on an Oasis HLB 96-well-SPE-plate (5 mg sorbent per well, Waters). The samples were washed twice with aqueous TFA (0.1% v/v, 1 mL) and eluted in two steps with aqueous acetonitrile (30% v/v, 150 μL) containing formic acid (0.1% v/v). The fractions were dried in a vacuum centrifuge (SpeedVac, 60°C), reconstituted with aqueous methanol (75% v/v, 20 μL) containing formic acid (0.1% v/v), and diluted with aqueous acetonitrile (3% v/v, 100 μL) containing formic acid (0.1%).
(§4) A quadrupole-Orbitrap mass spectrometer (Q Exactive plus™, Thermo Scientific) was coupled online to an uHPLC (Vanquish™, Thermo Scientific). Separation was achieved on a Jupiter C18 column (inner diameter: 1 mm, length: 150 mm, particle size: 5 μm, pore size: 130 Å, Phenomenex Ltd.) at 55°C using a flow rate of 200 μL/min and a linear gradient of 3 to 23% (v/v) aqueous acetonitrile containing formic acid (0.1%) within 5 min.
(§5) ARV-1502 was quantitated by the peak area of an extracted ion chromatogram (XIC) obtained from the MS/MS using Xcalibur 4.0.27.21 software. The peak area of ARV-1502 corrected by using the peak area of Onc72.

in vivo [2] = conditions: Sprague-Dawley, rat; for level at 0.5 h: plasma concentration after 30 min
Description: (§6) A series of eight blood samples (~0.5 mL each) was collected in rats on Day 1. Following IM administration, the blood was collected at 5, 15, 30, and 45 min and at 1, 1.5, 2, and 3-h post-dose. After IV administration, blood was collected at 2, 5, 15, 30, and 45 min and at 1, 1.5, and 2-h post-dose. Animals were euthanized after the last blood collection by carbon dioxide asphyxiation followed by cervical dislocation and discarded without further examination. Safety parameters monitored on the study were mortality and clinical signs. Body weights (BW) were recorded to calculate the dose only. Blood sampling was performed for pharmacokinetic evaluation.
as §3, §4
(§7) Pharmacokinetic datasets were evaluated with a PKSolver add-in for Microsoft Excel using a non-compartmental analysis (Zhang et al., [2010]).

[3] = rat, in vivo
Description: as §6, §3, §4, §7

in vivo [4] = conditions: Beagle, dog
Description: as §1, §2, §3, §4, §5

## CC(C)C[C@H](NC(=O)[C@H](Cc1ccc(O)cc1)NC(=O)[C@@H]1CCCN1C(=O)[C@H](CCCNC(=N)N)NC(=O)[C@@H]1CCCN1C(=O)[C@H](CCCCN)NC(=O)[C@H](CC(=O)O)NC(=O)[C@@H]1CCCN1C(=O)[C@H](CCCNC(=N)N)NC(=O)C1(N)CCCCC1)C(=O)N1CCC[C@H]1C(=O)N[C@@H](CCCNC(=N)N)C(=O)N1CCC[C@H]1C(=O)N[C@@H](CCCNC(=N)N)C(=O)N1CCC[C@H]1C(=O)N1CCC[C@H]1C(=O)N[C@@H](CCCNC(=N)N)C(=O)N1CCC[C@H]1C(=O)N[C@H](C(=O)N[C@@H](CCCNC(=N)N)C(N)=O)C(C)C [ARV-1502, Chex1-Arg20 amide] (H-[Ac6c]RPDKPRPYLPRPRPPRPVR-NH2)
[1]
  clearance rate in dogs relative to the rate in rats: around half
  volume of distribution after IM, fold larger than the BV: more than 9 fold
[1]; iv, 0.075 mg/kg
  AUMC0→∞: 820.3 μg·min^2/mL
  k: 0.09 min⁻¹
  volume of distribution as share of circulating blood volume (BV): ~ 84%
[1]; male, Beagle, iv, 75 ug/kg, 2 min
  plasma concentration 2 min after administration: 690 ± 150 ng/mL
In vivo [2]; im
  half-life: 24.2 min
In vivo [2]; iv, 0.25 mg/kg
  MRT: 6.22 min
  half-life: 15.4 min
In vivo [2]; both, im, 2.5 mg/kg
  Cmax: 12000 ng/mL
  Tmax: 15 min
  level at 0.5 h: ~900 ng/mL
In vivo [2]; both, im, 2.5 mg/kg, plasma concentration after 5 min
  level at 5 min: 11000 ± 3300 ng/mL
In vivo [2]; both, im, 2.5 mg/kg, plasma concentration within 3 h
  level at 3 h: 16 ng/mL
In vivo [2]; both, iv, 0.25 mg/kg
  AUC(0-inf): 521 ng·h/mL
  Cmax: 3410 ng/mL
  Tmax: 2 min
  level at 0.5 h: 64.2 ± 7.3 ng/mL
In vivo [2]; both, iv, 0.25 mg/kg, plasma concentration after 2 h
  level at 2 h: 2 to 4 ng/mL
In vivo [2]; female, im, 2.5 mg/kg, plasma concentration after 5 min (initial peptide level)
  level at 5 min: 13800 ± 1900 ng/mL
In vivo [2]; female, im, 2.5 mg/kg, plasma concentration at 15 min
  level at 0.25 h: 19000 ± 4900 ng/mL
In vivo [2]; male, im, 2.5 mg/kg, plasma concentration after 5 min (initial peptide level)
  level at 5 min: 8200 ± 1400 ng/mL
In vivo [2]; male, im, 2.5 mg/kg
  level at 0.5 h: 1000 ng/mL
[3]; both, Sprague-Dawley, iv, 0.25 mg/kg, 2 h
  plasma concentration after 2 h: 2.2 ± 0.4 ng/mL
[3]
  Cmax extrapolated in proportion to dose: ~ 34 μg/mL
  volume of distribution after IM, fold higher than after IV: more than 4 fold
[3]; iv, 0.25 mg/kg
  AUMC0→∞: 194.6 μg·min^2/mL
  k: 0.045 min⁻¹
  plasma concentration lower in male rats than in female rats: around 25%
  volume of distribution as share of the theoretical circulating blood volume: 85%
In vivo [4]; im
  half-life: 15.8 min
In vivo [4]; im, 0.75 mg/kg
  Vd: 8.14 L
In vivo [4]; iv, 0.075 mg/kg
  C0: 1040 ng/mL
  Cmax: 700 ng/mL
  MRT: 7.07 min
  Vd: 0.735 L
  half-life: 7.6 min
In vivo [4]; male, im, 0.75 mg/kg
  Cmax: 1000 ng/mL
  Tmax: 15 min
In vivo [4]; male, im, 0.75 mg/kg, plasma concentration at 5 min
  level at 5 min: 940 ± 280 ng/mL
In vivo [4]; male, im, 0.75 mg/kg, plasma concentration at 15 min
  level at 0.25 h: 1100 ± 200 ng/mL
In vivo [4]; male, iv, 0.075 mg/kg
  AUC(0-inf): 144 ng·h/mL
In vivo [4]; male, iv, 75 ug/kg, plasma concentration 2 min after administration
  level at 2 min: 700 ng/mL
In vivo [4]; male, iv, 75 ug/kg, plasma concentration after 30 min
  level at 0.5 h: 7.6 ± 1.3 ng/mL
